Measured values reported in patent US20200316087A1, “NOVEL COMBINATION THERAPY FOR ANXIETY DISORDERS, EPILEPSY, AND PAIN” (priority 2017, published 2020).

Key:
[1] = test system: CFA-induced mechanical hyperalgesia; assay: Complete Freund's adjuvant inflammatory pain, von Frey filament test; assay type: in vivo, rats
Method: Complete Freund's adjuvant (CFA) contains Mycobacterium butyricum, inducing inflammation and an increase in paw thickness. 0.1 mL of CFA was injected in the right hind paw of Sprague Dawley male rats under isoflurane anaesthesia. Mechanical hyperalgesia may be measured 2-3 days after CFA treatment. Rats (n=6) are placed in elevated boxes with a mesh floor. Von Frey filaments (expressed in g) are applied perpendicularly to the hindpaws, starting with the lowest filament (1.4 g) then increased until hindpaw withdrawal is observed. After each measurement, rats receive the next dose of drug (every 20 min) until the maximum threshold (26 g) is observed. For the antagonist study, rats are pretreated with the benzodiazepine site antagonist (10 min) and then receive the next dose of drug (every 20 min) until the pre-CFA threshold was observed.
3PBC.HCl was dissolved in a mixture containing 10% ethanol, 50% propylene glycol, and 40% sterile water. BCCt was dissolved in propylene glycol and then heated in a water bath up to 70° C. Midazolam (Akorn, Inc.) was dissolved in 0.9% saline. Doses were expressed as the weight of the drug in milligrams per kilogram of body weight and drugs were administered intraperitoneally.
Starting 2 days after CFA treatment, mechanical hyperalgesia was measured on days 0, 4, and 8. On days 1-3 and 5-7 rats were pretreated with either 3PBC.HCl (5.6 mg/kg), β-carboline-3-carboxylate-t-butyl ester (BCCt) (3.2 mg/kg) or saline twice a day (a.m. injections (9:00-10:30) and p.m. injections (5:00-6:30)) in their home cages. Rats were treated with midazolam (5.6 mg/kg) immediately after pretreatment of 3PBC.HCl, BCCt, or saline. On days 0 and 4, rats only received p.m. injections due to the mechanical hyperalgesia test done in the a.m.
The anti-hyperalgesic effects of midazolam were quantified for each animal as percent maximal possible effect (MPE) for each drug dose by using the following formula: percent MPE=[(post-drug value for a behavioral response (g)−pre-drug value for a behavioral response)/(pre-CFA value-pre-drug value for a behavioral response)×100.

[2] = test system: electroshock-induced seizures; assay: Mouse electroshock-induced seizure model; assay type: in vivo; details: mice
Method: This assay detects effects of compounds that produce generalized seizures and those that dampen seizure spread. Male, CD1 mice (Taconic Farms) were studied at weights of 21-32 g. Mice=10/dose) were used with Wahlquist Model H stimulator with 0.2 sec stimulation with corneal electrodes. […] Mice were euthanized immediately following the test. Tonic extension was used as the primary endpoint.
(§1) For the in vivo assays, minimal effective doses (MED) were calculated in mg/kg. MED was defined as the lowest dose administered that produced statistically significant protection compared to vehicle control in the anticonvulsant assays. The MED, or minimal toxic dose (MTD) for motor impairment, was the minimal dose required to produce statistically-significant impairment in motor performance. Doses tested are shown in the figures and tables and are generally dosed in ½ log increments. The protective index (PT) was calculated at the MTD/MED.

PTZ seizure threshold = assay: Pentylenetetrazole (PTZ, i.v.)-induced seizure threshold; assay type: in vivo, rats
Method: Male […] Sprague-Dawley rats (Indianapolis, Ind.) were randomly assigned to treatment groups and dosed with vehicle (vehicle=1% carboxymethyl cellulose) with diazepam (0.1, 0.3, or 1 mg/kg) or test compound (3, 10, 30, or 60 mg/kg) 30 minutes prior to testing. Rats were placed in a restrainer and a winged infusion needle was inserted into the lateral tail vein. Intravenous infusion with 10 mg/ml PTZ at a rate of 0.5 ml/min was initiated until a clonic convulsion occurred, and the time to clonic convulsion was recorded in sec or a maximum of 4 min was recorded. Following infusion, rats are euthanized. The dose of PTZ required to elicit a clonic convulsion was calculated using the infusion rate, concentration of PTZ, time to clonic convulsion, and animal weight.

PTZ-induced clonus = assay: Pentylenetetrazole (PTZ, 35 mg/kg s.c.)-induced clonic convulsions; assay type: in vivo; details: rats
Method: After the inverted screen test, the rats were dosed with pentylenetetrazole (PTZ)(35 mg/kg, s.c.) in a volume of 1 ml/kg and placed in an observation cage (40.6×20.3×15.2 cm) with a floor containing […] of wood chip bedding material. PTZ dose was determined to be ˜EC97 for producing clonic convulsions.

[3] = test system: seizures in amygdala kindled rats; assay: Basolateral amygdala kindling; assay type: in vivo
Method: Seizure kindling models evaluate effects of drugs on the sensitization of the nervous system to seizure induction. In this test, drugs were evaluated for their ability to impact seizure parameters in rats that were fully kindled by daily electrical stimulation of their amygdala. Valproic acid was used as a positive control. Experiments were conducted using the general procedures of Zwart et al. (J. Pharmacol. Exp. Ther., 2014, 351:124-133). A bipolar electrode for electrical stimulation and EEG recording was stereotaxically implanted into one hemisphere of the basolateral amygdala (AP −2.2, ML −4.8, DV −8.5 mm, relative to bregma) of male Wistar rats. After post-operative recovery, electrical kindling begins, where a subthreshold constant current (400 μA, 1 ms, monophasic square-wave pulses, 60 Hz for 1 sec) is given once a day Monday-Friday for about 4-6 weeks until a rat is fully kindled. A fully kindled rat has experienced 10 consecutive stage 5 seizures or 10 of its last 12 were stage 5 according to the Racine Scale.
Twelve fully kindled rats were assigned to this study, and eight rats were selected and randomized to initial compound treatment groups from baseline after discharge threshold (ADT), seizure severity score, and after discharge duration (ADD). […] On test day, rats were dosed 30 min prior to beginning stimulation. After the pre-treatment, rats were stimulated using an ascending staircase sequence beginning at 10 μA and increasing in log unit steps of 10, 16, 25, 40, 65, 100, 160, 250, and 400 μA. Animals were stimulated until they were assigned a Seizure Severity Score for a visually observably seizure or they reached the 400 μA threshold limit. ADD was determined following testing. ADT was the current that induced a seizure; measurements were scale-adjusted to capture the stimulation scale change required to observe a seizure from the previous baseline to the ADT scored on test day. […] The average scale adjusted ADT was approximately 0.63 μA in vehicle treated rats.
Racine score of behavioral response to stimulation: 0=no behavioral response; 1=immobility, staring and/or facial clonus; 2=head nodding, jaw clonus, and/or tongue protrusion; 3=unilateral forelimb clonus; 4=bilateral forelimb clonus and/or rearing; 5=bilateral forelimb clonus with rearing and loss of balance.
After-Discharge Duration (ADD) is the duration of the first after-discharge.
ADT, ADD, and severity scores were analyzed by ANOVA. Seizure severity data was also analyzed by the nonparametric Skillings-Mack test, a generalization of the Friedman test for one-way repeated measures designs. Posthoc tests when reported were either by Dunnett's method (seizure severity) or using Wilcoxon sign rank tests (ADT and ADD). Valproic acid, used as a positive control was not used in ANOVA calculations.

[4] = test system: motor performance on an inverted screen; assay: Rat inverted screen test (motor impairment); details: rats
Excerpt: The motor effects of Diazepam and KRM-II-81 were studied on the inverted screen. The inverted screen test is used to measure whether or not a test compound induces muscle relaxation. When a test subject is placed on a wire screen which is then inverted, the reaction is to climb to the opposite side so they are no longer hanging upside down.
Male, Sprague Dawley rats (Harlan Sprague Dawley, Indianapolis, Ind.) were used and weighed 90-110 g when evaluated in experiments. […] Rats were placed onto the top of a wire screen, which was then inverted so that the rats were hanging upside down.
Male Sprague-Dawley rats (n=5) were dosed i.p. (vehicle=1% carboxymethyl cellulose) with diazepam (3, 10, or 30 mg/kg), KRM-II-81 (10, 30, or 60 mg/kg) or HZ-166 (30 mg/kg) 30 minutes prior to testing. Rats were placed onto the top of a wire screen, which was then inverted so that the rats were hanging upside down. […] Results were analyzed using ANOVA (Dunnett's test: *P<0.05).
as §1

[5] = MED producing maximal protection (0% seizures)

With `CCCOc1cc2c(cn1)[nH]c1ccccc12.Cl` [3-PBC.HCl] the “percent maximal possible effect of midazolam” value ([1]; midazolam 5.6 mg/kg after 7 days of repeated midazolam with 3PBC.HCl (5.6 mg/kg) pretreatment twice a day) was 52 % MMPE.

`CC(C)(C)OC(=O)c1cc2c(cn1)[nH]c1ccccc12` [BCCt, β-carboline-3-carboxylate-t-butyl ester] was tested, and the “percent maximal possible effect (MPE) of midazolam” value ([1]; midazolam 5.6 mg/kg after 7 days of repeated midazolam with BCCt (3.2 mg/kg) pretreatment twice a day) was 92 % MPE.

`CCOC(=O)c1ncn2c1CN(C)C(=O)c1cc(F)ccc1-2` [Flumazenil, flumazenil] was tested, and the “effect on antinociceptive effects of KRM-II-81” value ([1]; flumazenil pre-treatment before cumulative doses of KRM-II-81, CFA rats) was “dose-dependently attenuated”.

For `C#Cc1ccc2c(c1)C(c1ccccn1)=NCc1c(C(=O)OCC)ncn1-2` [HZ-166, ethyl 8-ethynyl-6-(pyridin-2-yl)-4H-benzo[f]imidazo[1,5-a][1,4]diazepine-3-carboxylate, reference compound], the “Electroshock to Criteria” value [2, 5] was >30 mg/kg, the “Electroshock (minimal effective dose, MED)” value ([2]; lowest dose with statistically significant protection vs vehicle) was 30 mg/kg and the “protection against electroshock-induced seizures” value [2] was “not efficacious up to 30 mg/kg”. For the same compound, the “PTZ Threshold to Criteria” value (PTZ seizure threshold; MED for producing ≥2× PTZ seizure threshold at baseline) was >60 mg/kg, the “PTZ Threshold Poteny (MED)” value (PTZ seizure threshold; lowest dose with statistically significant effect, rats, PTZ i.v.) was >60 mg/kg and the “effect on dose of PTZ required to induce convulsions” value (PTZ seizure threshold; rats, PTZ i.v. infusion, pretreatment 30 min) was “not active and displayed little protection up to 60 mg/kg”. The “PTZ Clonus to Criteria 1” value (PTZ-induced clonus; [5]) was >30 mg/kg, the “PTZ Clonus Potency (MED)” value (PTZ-induced clonus; lowest dose with statistically significant protection, PTZ 35 mg/kg s.c.) was >30 mg/kg and the “protection against PTZ-induced clonus” value (PTZ-induced clonus; PTZ 35 mg/kg s.c.) was “did not significantly separate from vehicle up to 30 mg/kg”. For the same compound, the “After-Discharge Duration to Criteria” value ([3]; MED for producing after-discharge duration ≤30 sec) was >60 mg/kg, the “After-Discharge Threshold to Criteria” value ([3]; MED for producing after-discharge threshold ≥3) was >60 mg/kg and the “Seizure Severity to Criteria” value ([3]; MED for producing seizure severity score ≤2) was >60 mg/kg. The “After-Discharge Duration Potency (MED)” value ([3]; amygdala kindled rats) was >60 mg/kg, the “After-Discharge Threshold Potency (MED)” value ([3]; amygdala kindled rats) was >60 mg/kg and the “Seizure Severity Poteny (MED)” value ([3]; amygdala kindled rats) was >60 mg/kg. The “Seizure free scores (seizure severity=0)” value ([3]; amygdala kindled rats, groups of 8) was 0/8, the “muscle relaxation on inverted screen (result in words)” value ([4]; i.p., 30 min prior, KRM-II-81 10-60 mg/kg, HZ-166 30 mg/kg) was “Neither HZ-166 nor KRM-II-81 induced significant muscle relaxation” and the “dose at which signs of muscle relaxation began to appear” value ([4]; i.p., inverted screen) was 30 mg/kg.

`Cc1ncc2n1-c1ccc(Cl)cc1C(c1ccccc1F)=NC2` [midazolam] was tested, and the “percent maximal possible effect (MPE) of midazolam” value ([1]; midazolam 5.6 mg/kg after 7 days of repeated midazolam with saline pretreatment) was 17 % MPE and the “percent maximal possible effect (MPE), attenuation of mechanical hyperalgesia” value ([1]; midazolam 5.6 mg/kg i.p., Day 0, prior to repeated treatment, CFA rats) was 100 % MPE.

With `CCCC(CCC)C(=O)O` [valproate, Valproic acid, reference compound] the “motor impairment on inverted screen” value ([4]; 300 mg/kg, positive control) was “full motor impairment”.
